Results on eight compounds are retold here after patent publication US9096594B2, “Kinase inhibitors and methods of use thereof” (priority 2012, dated 2015).

≈ marks a conversion by molar mass, not a printed value. Like-named read-outs stand apart in the source and are kept apart here. A value given as a limit tells only on which side of the number the result lay.

The target in series [1] is T1, GSK3β (Homo sapiens (Human), UniProt P49841).
Series [2] deals with CDK5/p25 (Homo sapiens (Human), UniProt Q00535).
Procedure: Biochemical characterization of these synthesized compounds were assayed against GSK3β and CDK5/p25, with CDK5/p25 serving as a counter target of GSK3β selectivity. […] The effects of these compounds on survival of SH-SY5Y pathophysiology cells were also monitored.
Series [3] is described as follows: physchem. To be noted: PBS, no DMSO, pH 7.4, aqueous buffer, thermodynamic from solid.
A short description of series [4]: in vitro. To be noted: mouse, mouse plasma, pH 7.4.
Procedure: (§1) Plasma protein binding was determined by equilibrium dialysis using the Rapid Equilibrium Dialysis (RED) device (Pierce Biotechnology, Rockford, Ill.) for both human and mouse plasma. […] Compounds were incubated at 37° C. for 5 hours with a 250 rpm orbital shake.
The target of series [5] is T1, GSK3β. As to the kind of experiment: biochemical.
Procedure: (§2) Human GSK3β as a GST fusion expressed in baculoviral system was purchased from BPS Bioscience (San Diego, Calif.). […] Reactions were incubated at room temperature for 60 minutes. 2.5 μL/well of ADP-Glo (Promega, V9103) was added with BioRAPTR, and incubated at room temperature for 40 minutes followed by addition of 5 μL/well of ADP-Glo detection reagent (Promega, V9103) with Combi nL (Thermo, Waltham, Mass.) and incubation at room temperature for 30 minutes. The plates were read on a ViewLux (PerkinElmer, Waltham, Mass.) for luminescence. Data were scaled using the positive and neutral controls and fitted for IC50 as described below.
(§3) 100 mL/well compounds were pinned. […] Incubated at room temperature for 60 minutes. Added 20 μL/well of ADP-glo (Promega, V9103) with Combi, and incubated at room temperature for 40 minutes. Added 40 μL/well of ADP-glo (Promega, V9103) with Combi, incubated at room temperature for 30 minutes. Read on Envision for luminescence.
Series [6] has as its target T2, GSK3α (Homo sapiens (Human), UniProt P49840). As to the kind of experiment: biochemical.
Series [7] deals with T1, GSK3β. As to the kind of experiment: biochemical. The source holds these as a separate data set.
Series [8] deals with T1, GSK3β. As to the kind of experiment: biochemical. The source holds these as a separate data set.
The target in series [9] is T3, CK1δ (Homo sapiens (Human), UniProt P48730). As to the kind of experiment: biochemical.
Source text: (§4) Approximately 20,000 Response Units (RU) of anti GST-antibody (GE Healthcare Life Sciences) were immobilized on Flow Cell (FC) 1 and FC2 of a new, freshly conditioned CM5 Sensor Chip (GE Healthcare Life Sciences) in a Biacore T100 instrument utilizing the immobilization wizard of the T100 software package. Approximately 1,500 RU of recombinant GST (GE Healthcare Life Sciences) was then captured on FC1 utilizing the capture wizard protocol of the T100 software package. FC1 is used as a reference subtraction point for this and all SPR assays. Approximately 2,700 RU of recombinant GST-CK1δ was then captured on FC2 utilizing the capture wizard protocol of the T100 software package. FC2 is used as the active flowcell for this and all SPR assays. The analyte plate is generated in dose response fashion in TBS buffer containing a final concentration of 2% DMSO, with a final analyte concentration of 10 μM, 100 nM and 10 nM. A zero value is determined by running injections of buffer containing only 2% DMSO and no analyte. All injections are run in duplicate and are reference subtracted from FC1. A method consisting of a 60 second contact time and 60 second wash time with a flow rate of 30 μL/min was employed. […] Analysis of compounds was done using the 1:1 binding model and affinity measurements in the Biacore T100 evaluation software package.
(§5) Conditioning new chip: PBS immobilization buffer was loaded into buffer shelf and insert buffer line A. Unused CM5 sensor chip was loaded into instrument per user manual. Chip was primed with 6 minutes of buffer injection at 30 μL/min.
(§6) Primed chip again as described above. Generated anti GST antibody solution by mixing 4.5 μL anti GST antibody (GE Healthcare Life Sciences, GST Capture Kit) with 95.5 μL immobilization buffer (GE Healthcare Life Sciences, GST Capture Kit). Put solution into 700 μL small vial and cap. Repeated. Placed both vials in reagent rack 1 of Biacore T100 instrument and insert into machine per user manual. Initiated immobilization of anti GST antibody by utilizing the immobilization Wizard protocol of Biacore T100 software. Immobilized approximately 20,000 Response Units (RU) of anti GST antibody on FC1 and FC2. […] Inserted buffer line A. Repeated prime procedure. Generated GST protein solution by mixing 2 μL of recombinant GST (GE Healthcare Life Sciences, GST Capture Kit) with 98 μL TBS 2% DMSO buffer. Generated GST-CK1δ protein solution by mixing 5 μL of recombinant GST-CK1δ with 95 μL TBS 2% DMSO running buffer. Placed GST protein solution in position B1 on reagent rack 1. Placed GST-CK1δ protein solution in position Cl on reagent rack 1. Initiated a manual injection run and inject for 30 seconds at 5 μL/min GST protein solution on FC1 to generate reference flow cell. […] Captured approximately 1500 RU GST protein on FC1. Captured approximately 2700 RU GST-CK1δ protein on FC2.
(§7) An analyte plate was generated for the assay. Using a standard deep volume 384 well plate, placed 100 μL of a 10 μM analyte in TBS 2% DMSO solution wells A1 and A2. Placed 100 μL of a 50 nM analyte in TBS 2% DMSO solution in wells A3 and A4. Placed 100 μL of a 10 nM analyte in TBS 2% DMSO solution in wells A5 and A6. Placed 100 μL of TBS 2% DMSO running buffer in wells A7 and A8. Repeated steps for subsequent analytes. Placed analyte plate in Biacore T100 per user manual.
Series [10] concerns phospho-Tau (Ser199) in SH-SY5Y cells. As to the kind of experiment: Tau phosphorylation (Ser199) ELISA in SH-SY5Y cells. Format: cell-based, human. The note with it: SH-SY5Y cells; read-out: p-Tau Inhibition ELISA EC50 SH-SY5Y. (In general: An ELISA detects its analyte on a solid surface through an enzyme-linked reagent.)
Procedure: Tau Phosphorylation and Total Tau Assay
SH-SY5Y cells were maintained in DMEM supplemented with 10% heat-inactivated FBS and 1% penicillin-streptomycin (Invitrogen) unless otherwise stated. ELISA kits for phospho-Tau (Ser199) and total Tau detection were purchased from Invitrogen (KHB0041, and KHB7041 respectively). Briefly, SH-SY5Y cells were seeded at 50,000 cells/200 μL/well in 96 well plates and after overnight incubation, treated with various doses of chemical compounds at 0.2 μL/well. The next day cells were washed with PBS twice before being lysed in 100 μL Lysis buffer/well. […]
A standard protocol using an immunoassay kit to quantify total Tau protein and phospho-Tau (Ser199) protein in SH-SY5Y human neuroblastoma cells was employed. […]
Well strips were warmed and inserted into the frame. […] Samples were loaded to each well that would be analyzed for total Tau, 85 μl standard diluent buffer and 15 μl cell lysate were added. To each well that will be analyzed for pTau (Ser199) 50 μl standard diluent buffer+50 μl cell lysate were added. […] Anti-total Tau was added to wells being analyzed for total Tau, anti-pTau (Ser199) was added to wells being analyzed for pTau (Ser199), and plates were tapped gently on the side to mix. […] Absorbance of each well was read at 450 nm (within 2 hours of adding stop solution).
The test system of series [11] is amphetamine-induced hyperactivity in mice. As to the kind of experiment: Amphetamine-induced hyperactivity (AIH). To be noted: vs vehicle. Format: in vivo, mouse.
A short description of series [12]: Pharmacokinetics and brain distribution in male C57BL/6 mice. The note with it: single i.p. dose 30 mg/kg vs CHIR99021 12.5 mg/kg. Format: in vivo, mouse.
For series [13], the system named is AML cell lines. As to the kind of experiment: May-Grunwald Giemsa staining of AML cell lines. Format: cell-based. The note with it: three days after treatment, vs vehicle. As for the experimental part:
Compound 70 Induces Morphological Changes in AML Cell Lines Consistent with Myeloid Differentiation
On day three post-chemical treatment, cytospin preparations were performed. Changes in cellular morphology were evaluated by May-Grunwald Giemsa staining (Sigma Aldrich). Images were acquired by light microscopy at 400× magnification.

Series [14] has as its system HL-60 and U937 cells. As to the kind of experiment: GE-HTS myeloid differentiation signature. Format: cell-based. The note with it: HL-60 and U937, three days. On the procedure:
HL-60 and U937 cells were treated for three days with compound 70 or vehicle. A 32-gene differentiation signature was quantified by the LMA/bead-based approach and a Weighted Summed Score (Differentiation Score) calculated for all genes was determined for each condition. Error bars denote the mean±SD of 8 replicates and statistical significance of the differences between these differentiation scores was derived using a one-way ANOVA with a Bonferroni correction.
Compound 70 Induces a Gene Expression Signature in AML Cell Lines Consistent with Myeloid Differentiation […]

The target in series [15] is T2, GSK3α.
The target in series [16] is T1, GSK3β. This is another data set of the same source.
Series [17] has as its target CDK5 (Homo sapiens (Human), UniProt Q00535). As to the kind of experiment: Carna Biosciences kinase assay, CDK5. Format: biochemical.
Procedure: (§8) Briefly, a selection of compounds was screened against a panel of kinases at a single concentration of 10 μM. […] This was completed utilizing one of two assays depending on the kinase being examined.
(§9) Test compounds were dissolved in and diluted with dimethylsulfoxide (DMSO) to generate a 100× sample solution. These were then diluted to 4× sample solutions in assay buffer to make the final test compound solutions. Reference compounds for assay control were prepared similarly.
(§10) A solution of IMAP binding reagent (IMAP Screening Express kit; Molecular Devices) (60 μL) was added to each well and incubated for 30 minutes.
(§11) A solution of termination buffer (QuickScout Screening assist MSA; Carna Biosciences) (60 μL) was added to each well. The entire reaction mixture was then applied to a LabChip3000 system (Caliper Life Science) and the product and substrate peptide peaks were separated and quantified.
The assay utilized was identical to that of the single point inhibitory activity determination (MSA) but run in dose response. […] A solution of termination buffer (QuickScout Screening assist MSA; Carna Biosciences) (60 μL) was added to each well. The entire reaction mixture was then applied to a LabChip3000 system (Caliper Life Science) and the product and substrate peptide peaks were separated and quantified.
In series [18] the target is CDK9 (Homo sapiens (Human), UniProt P50750). As to the kind of experiment: Carna Biosciences kinase assay, CDK9. Format: biochemical.
Procedure: as §8, §9, §10, §11
The target of series [19] is Erk5 (Homo sapiens (Human), UniProt Q13164). As to the kind of experiment: Carna Biosciences kinase assay, Erk5. Format: biochemical.
Procedure: as §8, §9, §10, §11
Series [20] concerns the target LIMK1 (Homo sapiens (Human), UniProt P53667). As to the kind of experiment: Carna Biosciences kinase assay, LIMK1. Format: biochemical.
Procedure: as §8, §9, §10, §11
Series [21] deals with PLK1 (Homo sapiens (Human), UniProt P53350). As to the kind of experiment: Carna Biosciences kinase assay, PLK1. Format: biochemical.
Procedure: as §8, §9, §10, §11
In series [22] the test system is panel of 311 kinases. As to the kind of experiment: Kinome-wide selectivity profile (Carna Biosciences, 311 kinases). The note with it: 10 μM, 311 kinases. Format: biochemical.
Procedure: as §8, §9, §10, §11
The conditions of series [23]: M (mouse).
Series [24] concerns TCF/LEF reporter in HEK293-pBARL cells. As to the kind of experiment: cells. To be noted: read-out: TCF/LEF (μM).
Procedure: HEK293-pBARL cells were derived from HEK293 cells and they stably expressed a firefly-luciferase reporter gene driven by a promoter containing 12 copies of TCF/LEF binding sequences. These cells were maintained in DMEM and supplemented with 10% FBS and 1% penicillin-streptomycin (Invitrogen). Reporter gene assays were conducted in anti-biotic free media. […] These cells also contained a renilla-luciferase reporter gene driven by the ubiquitous EF1α promoter as a control. HEK293-pBarl reporter cell lines were seeded into 384-well culture plates (Corning) at 6000 cells/well. 24 hours after plating, cells were treated overnight with relevant compounds and assayed using DualGlo assay kit (Promega). Luminescent intensities were read by EnVision (PerkinElmer, Waltham, Mass.). Firefly luciferase intensity is normalized by renilla luciferase intensity.
Cells were cultured in 384 well plates to appropriate density (40 μl total plating volume). 24 hours after plating, cells were treated with 100 nl compounds. 24 hours after incubation with compounds (48 hours after plating), assay reagents were prepared by mixing Luciferase Assay solution with Luciferase substrate and Stop & Glo solution to Stop & Glo substrate (extra reagents can be aliquoted and frozen for future use and are stable for at least one freeze/thaw cycle). […] The plate was spun down and 10 minutes were allowed for signal stabilization. Luciferase signal on the Perkin Elmer EnVision using the following parameters: Distance between plate & detector (mm)=0.2; Measurement time(s)=0.1; Glow (CT2) correction factor=0. Once the initial data is secure, a volume of Stop & Glo was added equal to each well equal to the volume of Luciferase reagent added above (If 10 μl Luciferase Reagent was added, 10 μl Stop & Glo was also added). The plate was spun down and 10 minutes were allowed for signal stabilization. The plate was read on the EnVision using the same parameters detailed above.
Series [25] concerns the target T3, CK1δ.
Source text: as §4, §5, §6, §7
Series [26] has as its target T1, GSK3β. This is another data set of the same source.
Procedure: as §2, §3
In series [27] the target is T2, GSK3α. To be noted: read-out: IC50 (μM), GSK3α.
Series [28] has as its target T1, GSK3β. To be noted: read-out: IC50 (μM), GSK3β.
Series [29] deals with T1, GSK3β. The source holds these as a separate data set.
For series [30] the following is noted: mouse, plasma.
Procedure: as §1
Series [31] has as its system GSK3. The note with it: read-out: GSK3 IC50 of lithium; cited from earlier work.

T2 sequence (P49840 whole entry): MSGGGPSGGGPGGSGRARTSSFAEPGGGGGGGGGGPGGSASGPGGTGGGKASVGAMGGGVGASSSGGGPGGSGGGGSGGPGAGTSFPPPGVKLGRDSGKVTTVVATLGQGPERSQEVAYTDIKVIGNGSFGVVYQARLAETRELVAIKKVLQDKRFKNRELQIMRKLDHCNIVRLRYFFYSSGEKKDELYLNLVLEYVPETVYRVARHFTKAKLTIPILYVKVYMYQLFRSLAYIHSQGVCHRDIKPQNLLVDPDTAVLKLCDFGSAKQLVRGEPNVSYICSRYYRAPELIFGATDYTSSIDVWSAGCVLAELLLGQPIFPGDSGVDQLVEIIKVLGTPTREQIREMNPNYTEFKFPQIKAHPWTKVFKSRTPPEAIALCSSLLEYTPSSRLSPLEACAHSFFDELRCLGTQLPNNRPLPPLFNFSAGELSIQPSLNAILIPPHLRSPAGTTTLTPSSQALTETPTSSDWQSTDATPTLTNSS
T1 sequence (P49841 whole entry): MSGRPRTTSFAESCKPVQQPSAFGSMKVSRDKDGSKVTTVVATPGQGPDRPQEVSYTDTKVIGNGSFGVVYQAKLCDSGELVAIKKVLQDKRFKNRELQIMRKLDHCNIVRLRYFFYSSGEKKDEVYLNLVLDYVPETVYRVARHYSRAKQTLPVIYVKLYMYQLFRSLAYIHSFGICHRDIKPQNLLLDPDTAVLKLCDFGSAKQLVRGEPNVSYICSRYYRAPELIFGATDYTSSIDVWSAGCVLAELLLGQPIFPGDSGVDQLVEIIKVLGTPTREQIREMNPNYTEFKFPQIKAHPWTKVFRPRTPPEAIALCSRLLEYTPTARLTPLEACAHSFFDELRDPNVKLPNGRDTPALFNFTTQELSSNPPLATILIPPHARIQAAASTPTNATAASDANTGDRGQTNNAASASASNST
LIMK1, sequence (P53667 whole entry): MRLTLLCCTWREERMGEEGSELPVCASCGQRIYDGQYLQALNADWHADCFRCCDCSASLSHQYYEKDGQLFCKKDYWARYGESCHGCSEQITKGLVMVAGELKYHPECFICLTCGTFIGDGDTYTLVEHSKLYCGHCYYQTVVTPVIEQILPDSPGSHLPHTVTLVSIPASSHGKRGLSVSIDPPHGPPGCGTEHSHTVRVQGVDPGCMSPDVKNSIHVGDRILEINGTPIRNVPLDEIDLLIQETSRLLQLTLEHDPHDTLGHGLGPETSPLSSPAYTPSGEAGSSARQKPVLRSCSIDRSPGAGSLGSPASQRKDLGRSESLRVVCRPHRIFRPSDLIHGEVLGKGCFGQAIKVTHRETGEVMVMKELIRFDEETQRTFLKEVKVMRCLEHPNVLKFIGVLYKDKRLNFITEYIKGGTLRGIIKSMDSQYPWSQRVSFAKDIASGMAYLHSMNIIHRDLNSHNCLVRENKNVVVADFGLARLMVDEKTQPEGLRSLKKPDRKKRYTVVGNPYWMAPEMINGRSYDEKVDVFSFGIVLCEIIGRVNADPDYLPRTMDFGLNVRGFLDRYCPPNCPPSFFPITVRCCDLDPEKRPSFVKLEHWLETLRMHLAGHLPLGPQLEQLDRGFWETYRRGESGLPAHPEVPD
T3 sequence (P48730 whole entry): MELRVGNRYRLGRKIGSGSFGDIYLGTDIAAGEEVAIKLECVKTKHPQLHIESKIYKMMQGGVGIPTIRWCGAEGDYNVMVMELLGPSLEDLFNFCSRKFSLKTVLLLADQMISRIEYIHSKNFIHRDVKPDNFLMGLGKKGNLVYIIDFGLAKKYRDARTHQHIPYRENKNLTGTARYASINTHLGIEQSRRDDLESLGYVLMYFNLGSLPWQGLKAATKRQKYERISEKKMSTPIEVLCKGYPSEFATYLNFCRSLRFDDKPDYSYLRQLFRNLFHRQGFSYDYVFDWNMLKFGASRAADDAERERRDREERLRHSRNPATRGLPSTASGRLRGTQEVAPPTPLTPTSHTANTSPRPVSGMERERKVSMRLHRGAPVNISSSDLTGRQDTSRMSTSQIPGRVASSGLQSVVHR
CDK9, sequence (P50750 whole entry): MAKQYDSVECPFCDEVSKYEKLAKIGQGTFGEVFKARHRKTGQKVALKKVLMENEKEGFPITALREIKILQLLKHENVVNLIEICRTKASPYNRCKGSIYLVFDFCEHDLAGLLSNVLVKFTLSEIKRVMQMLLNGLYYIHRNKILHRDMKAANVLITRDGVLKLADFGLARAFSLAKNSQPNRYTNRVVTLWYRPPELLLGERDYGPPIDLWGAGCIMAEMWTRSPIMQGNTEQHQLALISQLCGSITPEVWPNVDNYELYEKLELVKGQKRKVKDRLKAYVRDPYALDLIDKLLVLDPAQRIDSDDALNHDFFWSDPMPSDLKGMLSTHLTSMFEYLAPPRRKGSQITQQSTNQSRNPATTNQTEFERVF
CDK9, sequence (O60563 whole entry partner): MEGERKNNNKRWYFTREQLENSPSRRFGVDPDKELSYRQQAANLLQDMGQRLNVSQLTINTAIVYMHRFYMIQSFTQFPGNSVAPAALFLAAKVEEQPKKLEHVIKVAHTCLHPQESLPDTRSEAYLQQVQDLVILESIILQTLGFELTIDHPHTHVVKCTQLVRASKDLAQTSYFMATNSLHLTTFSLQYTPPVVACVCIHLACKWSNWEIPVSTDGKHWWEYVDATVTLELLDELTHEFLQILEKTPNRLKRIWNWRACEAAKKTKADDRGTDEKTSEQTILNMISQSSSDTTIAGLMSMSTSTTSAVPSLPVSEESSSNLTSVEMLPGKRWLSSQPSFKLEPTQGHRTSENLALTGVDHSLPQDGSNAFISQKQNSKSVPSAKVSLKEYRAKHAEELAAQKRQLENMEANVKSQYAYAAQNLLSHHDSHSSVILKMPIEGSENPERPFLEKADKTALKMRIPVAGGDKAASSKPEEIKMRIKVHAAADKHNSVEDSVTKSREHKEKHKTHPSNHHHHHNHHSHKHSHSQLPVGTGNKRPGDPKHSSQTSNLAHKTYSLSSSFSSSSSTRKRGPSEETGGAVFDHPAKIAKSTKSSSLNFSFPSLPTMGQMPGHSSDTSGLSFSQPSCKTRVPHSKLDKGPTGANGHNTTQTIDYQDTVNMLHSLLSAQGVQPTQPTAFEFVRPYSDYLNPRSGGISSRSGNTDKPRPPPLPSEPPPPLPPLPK
CDK5, sequence (Q00535 whole entry): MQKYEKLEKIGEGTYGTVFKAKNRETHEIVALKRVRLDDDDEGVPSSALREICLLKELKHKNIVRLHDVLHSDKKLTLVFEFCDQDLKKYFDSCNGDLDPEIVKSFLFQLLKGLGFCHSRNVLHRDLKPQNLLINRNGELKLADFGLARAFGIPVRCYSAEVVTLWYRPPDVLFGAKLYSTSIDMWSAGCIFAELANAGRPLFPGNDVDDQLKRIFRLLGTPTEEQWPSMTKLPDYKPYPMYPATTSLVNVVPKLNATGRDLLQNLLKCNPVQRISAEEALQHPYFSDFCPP
CDK5, sequence (Q15078 99-307 partner): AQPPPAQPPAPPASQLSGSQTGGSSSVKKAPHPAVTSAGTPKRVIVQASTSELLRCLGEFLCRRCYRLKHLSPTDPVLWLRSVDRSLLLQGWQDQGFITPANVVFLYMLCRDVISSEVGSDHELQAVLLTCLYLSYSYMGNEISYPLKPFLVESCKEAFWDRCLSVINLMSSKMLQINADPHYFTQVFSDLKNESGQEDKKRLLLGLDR
Erk5, sequence (Q13164 whole entry): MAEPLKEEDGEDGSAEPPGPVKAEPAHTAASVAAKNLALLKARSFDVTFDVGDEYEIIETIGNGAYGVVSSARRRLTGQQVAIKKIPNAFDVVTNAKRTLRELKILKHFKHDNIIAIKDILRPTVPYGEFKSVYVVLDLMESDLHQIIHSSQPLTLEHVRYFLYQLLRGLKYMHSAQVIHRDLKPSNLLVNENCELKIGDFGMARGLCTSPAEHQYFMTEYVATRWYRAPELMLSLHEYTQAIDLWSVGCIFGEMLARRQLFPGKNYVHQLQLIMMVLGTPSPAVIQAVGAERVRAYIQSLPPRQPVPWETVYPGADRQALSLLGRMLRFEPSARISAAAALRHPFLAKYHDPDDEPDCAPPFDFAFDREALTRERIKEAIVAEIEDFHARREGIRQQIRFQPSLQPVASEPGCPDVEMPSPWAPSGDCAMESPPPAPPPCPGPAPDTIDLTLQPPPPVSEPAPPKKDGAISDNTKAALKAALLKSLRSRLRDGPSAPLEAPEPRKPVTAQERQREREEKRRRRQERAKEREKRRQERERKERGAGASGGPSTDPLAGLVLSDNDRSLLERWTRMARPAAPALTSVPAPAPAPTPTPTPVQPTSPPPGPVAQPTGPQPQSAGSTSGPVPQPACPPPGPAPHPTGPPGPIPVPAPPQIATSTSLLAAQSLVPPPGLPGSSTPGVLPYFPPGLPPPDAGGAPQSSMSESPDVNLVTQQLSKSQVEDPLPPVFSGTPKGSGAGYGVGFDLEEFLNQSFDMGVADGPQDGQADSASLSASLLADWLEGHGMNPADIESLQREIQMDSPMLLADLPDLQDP
CDK5/p25, sequence (Q00535 whole entry, species assumed): as the sequence (Q00535 whole entry) above
CDK5/p25, sequence (Q15078 99-307 partner, species assumed): as the sequence (Q15078 99-307 partner) above

Turning to `COc1ccccc1C1C2=C(CC(C)(C)CC2=O)Nc2n[nH]c(C)c21` (racemic) [Compound 20, 4-(2-methoxyphenyl)-3,7,7-trimethyl-6,7,8,9-tetrahydro-1H-pyrazolo[3,4-b]quinolin-5(4H)-one], the Kd in series [1] is under 0.1 µM; in series [8], 0.06 µM; in series [9], 5 to 30 µM. Further, the “ADP Glo Assay GSK3β vs CDK5 fold selectivity” value in series [2] was 57X. In addition, the “Plasma stability % remaining (in mice)” value (mouse plasma, 5 hours) turned out to be 87.2%. The solubility at 24 h in [3] turned out to be 130 µM (≈ 43.9 µg/mL). Also, the fraction unbound at 5 h, 5 µM in series [4] is 0.229. Besides, the 50% inhibitory concentration (IC50) in series [5] is 0.101 to 1 µM; in series [6] it was under 0.1 µM; in series [7], under 0.1 µM.
Regarding `CC1(C)CC(=O)C2=C(C1)Nc1n[nH]c(C(F)(F)F)c1C2(C)c1ccccc1` (racemic) [Compound 71, 4,7,7-trimethyl-4-phenyl-3-(trifluoromethyl)-6,7,8,9-tetrahydro-2H-pyrazolo[3,4-b]quinolin-5(4H)-one], the EC50 in series [10] is over 30 µM. Further, the concentration for half-maximal inhibition (IC50) in [6] was 0.101 to 1 µM; in series [7], 1 to 5 µM.
On to `CC1(C)CC(=O)C2=C(C1)Nc1n[nH]c(C(F)(F)F)c1C2(C)c1ccccc1` (single isomer, unassigned) [Compound 70, 4,7,7-trimethyl-4-phenyl-3-(trifluoromethyl)-6,7,8,9-tetrahydro-2H-pyrazolo[3,4-b]quinolin-5(4H)-one], for which the “effect on amphetamine-induced hyperactivity, intraperitoneal injection” value in series [11] (systemic intraperitoneal injection) is “attenuate amphetamine-induced hyperactivity”. In addition, the “pharmacokinetic profile (systemic exposure and brain distribution) compared to CHIR99021” value in series [12] is listed as “improved pharmacokinetic profile”. The “morphological changes in AML cell lines” value in series [13] was “cellular differentiation”. Also, the “gene expression signature (32-gene differentiation score)” value in series [14] was “induced a gene expression signature in AML cell lines consistent with myeloid differentiation”. The half-inhibitory concentration (IC50) in [15] and in series [16] was under 0.1 µM each time.
For `Cc1c[nH]c(-c2cnc(NCCNc3ccc(C#N)cn3)nc2-c2ccc(Cl)cc2Cl)n1` [CHIR99021], the “% Inhibition at 10 μM, CDK5” value in [17] (10 μM) is given as 51.2%. In addition, the “% Inhibition at 10 μM, CDK9” value was 88.1% in [18] and “greater than 50%” in [18] (listed as CHIR 99021). Moreover, in [19], the “% Inhibition at 10 μM, Erk5” value was 61.3%. Also, the “% Inhibition at 10 μM, LIMK1” value in series [20] is 78.9%; in series [20] (listed as CHIR 99021), “greater than 50%”. Further, the “% Inhibition at 10 μM, PLK1” value in [21] was 59.2%. Besides, in [22], the “number of kinases inhibited greater than 50% at 10 μM” value was 21 kinases. Also, the “Microsomal Stability (M:)” value in series [23] is given as “M: 4%”. For the same compound, the EC50 in series [24] stood at 6 µM.
As for `Cc1[nH]nc2c1C(c1ccc(F)cc1)C1=C(CC(C)(C)CC1=O)N2` (stereo not drawn) [Compound 12, 4-(4-fluorophenyl)-3,7,7-trimethyl-6,7,8,9-tetrahydro-1H-pyrazolo[3,4-b]quinolin-5(4H)-one], the equilibrium dissociation constant (Kd) was under 0.1 µM in series [25] and 1 to 5 µM in series [8]. Also, the IC50 in series [5], in series [6] and in series [7] was 1 to 5 µM each time.
With `COc1ccccc1[C@@H]1C2=C(CC(C)(C)CC2=O)Nc2n[nH]c(C)c21` [Compound 22], the IC50 in series [17] (dose response) was 1.4 µM; in [26], under 0.1 µM; in series [15] it was under 0.1 µM; in series [27] it was 0.027 µM; in [28], 0.061 µM. For the same compound, the “effect on amphetamine-induced hyperactivity, ICV injection” value in series [11] (intracerebroventricular injection) is “attenuate amphetamine-induced hyperactivity”. Besides, the “mode of inhibition (Lineweaver-Burk plot)” value in [29] was “competitive inhibition”.
Compound `Cc1[nH]nc2c1C(c1ccccc1)(C(F)(F)F)C1=C(CC(C)(C)CC1=O)N2` (stereo not drawn) [Compound 83] returned a half-inhibitory concentration (IC50) in [16] of under 0.1 µM. Moreover, the “Protein binding % bound (in mice)” value in series [30] turned out to be 89.8%. In addition, the “Plasma stability % remaining (in mice)” value (mouse, plasma, 5 h) is listed as 1016%.
With Lithium, the 50% inhibitory concentration (IC50) in [31] was 2000 µM.

The Kd is the constant that tells how readily two partners part at equilibrium. Low values mean higher affinity, high ones lower affinity. As usually defined, the solubility is how much of the substance goes into solution per volume. Usually fraction unbound stands for free concentration divided by total concentration. As usually defined, the IC50 is the concentration at which inhibition is half-maximal. As usually defined, the % Inhibition is the percentage by which the read-out fell short of the control. Read a low % Inhibition as a weak effect.
